# Target: Carbonic anhydrase 2 (Homo sapiens, UniProt P00918)
# Assay: Then 30 μL of 16 nM hCA II solution was added (8 nM final concentration), mixed five times. 30 μL of 4-NPA substrate solution was added (2.5 mM final concentration), mixed five times.
structure (smiles),measurement,value
NS(=O)(=O)c1ccc(C(=O)N2C[C@H]3CN(C(=O)/C=C/c4ccc(OC(F)(F)F)cc4)C[C@]3(F)C2)c(F)c1 (relative stereo),IC50,6 nM
